Among the data in publication PMC12081497, “Design, synthesis, and anti-breast cancer activity evaluation of novel 3-cyanopyridine derivatives as PIM-1 inhibitors” (Molecular Diversity, 2024) are IC50 and melting point values, retold here.

Where two headings read alike, the source gives them in different places.

Data set [1] concerns MCF-7 human cancer cell line. In words: In vitro anti-proliferative MTT assay. Type of data set: cell-based. The protocol: In the present study, all synthesized cyanopyridine hybrids were subjected to in vitro cytotoxicity testing using the MTT assay method against MCF-7 human cancer.
All cell lines were maintained in RPMI1640 medium containing 10% FBS at 37 °C in 5% CO2 humidified incubator. Cell proliferation assay was determined by the MTT (3-[4,5-dimethyl-2-thiazolyl]-2,5- diphenyl-2H-tetrazolium bromide) method. Briefly, cells were plated in triplicate wells (3–5 × 10^4 cells/well) of 96-well flat-bottomed plates and incubated overnight prior to drug exposure and then treated with different concentrations of the tested compounds for 48 h. After that, 20 μL of MTT reagent at a final concentration of 0.5 mg/mL was added to each well. Cells were then incubated for 2 h with MTT, after which 100 μL of DMSO solution was added to dissolve the formazan salt resulting from the reduction of MTT and the absorbance was read at 570 nm using an automatic plate reader. The IC50 values were calculated according to inhibition ratios from three independent experiments.
(Tetrazolium dyes change colour on reduction, which living cells bring about.)

The mark [2] stands for this setting: Homo sapiens, MCF7, 48 h, MTT, MCF-7, 48 h treatment, read-out: Cytotoxicity IC50, SD (±), MCF7.
The mark [3] stands for this setting: MTT, MCF-7, 48 h treatment, read-out: Cytotoxicity IC50, SD (±), MCF7.

The IC50 is the concentration that inhibits the measured activity by half. On to `COc1cccc(-c2cc(-c3ccc(OCC(=O)Nc4ccccc4)c(OC)c3)c(C#N)c(=O)n2C)c1` [9b, 2-(4-(3-Cyano-6-(3-methoxyphenyl)-1-methyl-2-oxo-1,2-dihydropyridin-4-yl)-2-methoxyphenoxy)-N-phenylacetamide], for which the IC50 in data set [1] (setting [2]) was determined as 8.79 ± 0.36 µM; in data set [1] (setting [3]), 8.8 ± 0.36 µM.

With `COc1cc(-c2cc(-c3ccc(Br)cc3)n(C)c(=O)c2C#N)ccc1OCC(=O)Nc1ccccc1` [9e, 2-(4-(6-(4-Bromophenyl)-3-cyano-1-methyl-2-oxo-1,2-dihydropyridin-4-yl)-2-methoxyphenoxy)-N-phenylacetamide], in data set [1] (setting [2]), the IC50 was 18.3 ± 0.75 µM.

On to `COc1cc(-c2cc(-c3ccc(Br)cc3)[nH]c(=O)c2C#N)ccc1OCC(=O)Nc1ccccc1` [7e, 2-(4-(6-(4-Bromophenyl)-3-cyano-2-oxo-1,2-dihydropyridin-4-yl)-2-methoxyphenoxy)-N-phenylacetamide], for which the IC50 in data set [1] (setting [2]) was 21.9 ± 0.9 µM.

One may read the melting point as the temperature of the solid-liquid transition. In turn, `COc1cc(-c2cc(-c3ccco3)[nH]c(=O)c2C#N)ccc1OCC(=O)Nc1ccccc1` [7f, 2-(4-(3-Cyano-6-(furan-2-yl)-2-oxo-1,2-dihydropyridin-4-yl)-2-methoxyphenoxy)-N-phenylacetamide] yielded a melting point of 296 to 298 °C. Moreover, in data set [1] (setting [2]), the IC50 turned out to be 3.98 µM. The IC50 in data set [1] (setting [3]) amounted to 3.98 ± 0.16 µM.

Regarding `COc1cccc(-c2cc(-c3ccc(OCC(=O)Nc4ccccc4)c(OC)c3)c(C#N)c(=O)[nH]2)c1` [7b, 2-(4-(3-Cyano-6-(3-methoxyphenyl)-2-oxo-1,2-dihydropyridin-4-yl)-2methoxyphenoxy)-N-phenylacetamide], in data set [1] (setting [2]), the IC50 was found to be 56.8 ± 2.34 µM.

Turning to `COc1cccc2c1C(=O)c1c(O)c3c(c(O)c1C2=O)C[C@@](O)(C(=O)CO)C[C@@H]3O[C@H]1C[C@H](N)[C@H](O)[C@H](C)O1` [Doxorubicin, reference compound], the IC50 in data set [1] (setting [2]) and in data set [1] (setting [3]) was 11.5 ± 0.47 µM in each case.

Take `COc1cc(-c2cc(-c3ccc4ccccc4c3)nc(OC)c2C#N)ccc1OCC(=O)Nc1ccccc1` [8f]: the melting point was 193 to 195 °C.

“2-(4-(3-Cyano-2-oxo-6-phenyl-1,2-dihydropyridin-4-yl)-2-methoxyphenoxy)-N-phenylacetamide [8a]”: half-maximal inhibition in data set [1] (IC50) required 14.3 ± 0.59 µM.

For `COc1cc(-c2cc(-c3ccc(Br)cc3)nc(OC)c2C#N)ccc1OCC(=O)Nc1ccccc1` [8e, 2-(4-(6-(4-Bromophenyl)-3-cyano-2-methoxypyridin-4-yl)-2-methoxyphenoxy)-N-phenylacetamide], in data set [1] (setting [2]), the IC50 turned out to be 42.6 ± 1.75 µM.

Take `COc1cc(-c2cc(-c3ccncc3)[nH]c(=O)c2C#N)ccc1OCC(=O)Nc1ccccc1` [7i, 2-(4-(3-Cyano-2-oxo-6-(pyridin-4-yl)-1,2-dihydropyridin-4-yl)-2-methoxyphenoxy)-N-phenylacetamide]: the IC50 in data set [1] (setting [2]) is 23.9 ± 0.98 µM.

As for `COc1cc(-c2cc(-c3ccccc3)n(C)c(=O)c2C#N)ccc1OCC(=O)Nc1ccccc1` [9a, 2-(4-(3-Cyano-1-methyl-2-oxo-6-phenyl-1,2-dihydropyridin-4-yl)-2-methoxyphenoxy)-N-phenylacetamide], the IC50 in data set [1] (setting [2]) and in data set [1] (setting [3]) was 9.1 ± 0.37 µM throughout.

Compound “2-(4-(6-(4-Chlorophenyl)-3-cyano-2-oxo-1,2-dihydropyridin-4-yl)-2-methoxyphenoxy)-N-phenylacetamide [8d]” registered an IC50 in data set [1] of 18 ± 0.74 µM.

Consider `COc1ccc(-c2cc(-c3ccc(OCC(=O)Nc4ccccc4)c(OC)c3)c(C#N)c(=O)n2C)cc1` [9c, 2-(4-(3-Cyano-6-(4-methoxyphenyl)-1-methyl-2-oxo-1,2-dihydropyridin-4-yl)-2-methoxyphenoxy)-N-phenylacetamide], for which the IC50 in data set [1] (setting [2]) was found to be 26.1 ± 1.07 µM.

“2-(4-(6-(4-Chlorophenyl)-3-cyano-2-oxo-1,2-dihydropyridin-4-yl)-2-methoxyphenoxy)-N-phenylacetamide [9d]” returned an IC50 in data set [1] of 2.05 µM.
